Assay results: patent publication US7211600B2, “Methods of modulating c-kit tyrosine protein kinase function with indolinone compounds” (Sugen Inc., priority 1999, dated 2007)
Where two headings read alike, the source gives them in different places.

Columns and labels:
MO7E cells [1] = assay: Apoptosis assay: activated caspase-3 by FACS; assay type: cell-based, human
Method: (§1) Samples were assayed at 24 and 48 hours. To measure activated caspase-3, samples were washed with PBS and permeabilized with ice-cold 70% ethanol. The cells were then stained with PE-conjugated polyclonal rabbit anti-active caspase-3 and analyzed by FACS. To measure cleaved PARP, samples were lysed and analyzed by western blotting with an anti-PARP antibody.

MO7E cells [2] = assay: Apoptosis assay: cleaved PARP by western blotting; assay type: cell-based, human
Method: as §1

c-kit = c-kit (Homo sapiens, UniProt P10721); details: MO7E cells, 250 ng/ml rh-SCF 15 min, pre-treatment Compound Eight 2 hours, Compound Six 22 hours
Method: (§2) MO7E cells, a human myeloid leukemia cell line, were maintained in RPMI-1640 medium supplemented with 10% fetal calf serum and 10 ng/ml each IL-3 and GM-CSF.
MO7E cells were serum starved overnight in 0.1% serum. […] Cells were stimulated with 250 ng/ml rh-SCF for 15 minutes. Following stimulation, cells were lysed and immunoprecipitated with an anti-c-kit antibody. Phosphotyrosine and protein levels were determined by western blotting.

MO7E cells [3] = assay: cells; details: Homo sapiens, 48 h, read-out: IC50 value for inhibition of proliferation
Method: as §2

c-kit, sequence (P10721 26-976): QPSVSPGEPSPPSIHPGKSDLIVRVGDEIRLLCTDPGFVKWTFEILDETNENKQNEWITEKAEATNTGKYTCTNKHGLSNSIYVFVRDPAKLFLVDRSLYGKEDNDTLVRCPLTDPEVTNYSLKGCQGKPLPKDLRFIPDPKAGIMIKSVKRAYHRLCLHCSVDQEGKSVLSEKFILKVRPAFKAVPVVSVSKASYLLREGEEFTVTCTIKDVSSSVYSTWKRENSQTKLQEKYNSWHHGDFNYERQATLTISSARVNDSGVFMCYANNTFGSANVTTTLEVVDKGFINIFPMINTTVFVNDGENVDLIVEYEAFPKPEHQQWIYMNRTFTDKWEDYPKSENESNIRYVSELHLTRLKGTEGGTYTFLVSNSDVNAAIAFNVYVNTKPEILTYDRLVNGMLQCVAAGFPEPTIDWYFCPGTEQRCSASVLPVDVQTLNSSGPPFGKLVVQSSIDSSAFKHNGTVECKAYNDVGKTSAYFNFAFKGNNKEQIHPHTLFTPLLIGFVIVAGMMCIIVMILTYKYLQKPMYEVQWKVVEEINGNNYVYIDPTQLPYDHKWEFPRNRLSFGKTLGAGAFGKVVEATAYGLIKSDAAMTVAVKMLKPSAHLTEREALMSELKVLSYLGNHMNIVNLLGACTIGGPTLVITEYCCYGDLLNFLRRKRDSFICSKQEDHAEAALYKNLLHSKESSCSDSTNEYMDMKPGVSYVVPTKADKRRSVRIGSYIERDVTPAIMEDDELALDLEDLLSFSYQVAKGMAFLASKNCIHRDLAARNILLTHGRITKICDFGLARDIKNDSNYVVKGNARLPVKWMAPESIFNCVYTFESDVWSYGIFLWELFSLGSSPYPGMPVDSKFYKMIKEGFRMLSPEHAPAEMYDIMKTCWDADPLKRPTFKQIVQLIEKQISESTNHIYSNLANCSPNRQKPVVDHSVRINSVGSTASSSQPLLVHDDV

| Compound | effect on number of apoptotic cells (activated caspase-3) (MO7E cells [1]; 5 μM, 24 or 48 hours, +/- SCF stimulation) | effect on number of apoptotic cells (activated caspase-3) (MO7E cells [1]; 25 μM, 24 hours, +/- SCF stimulation) | increase in the number of apoptotic cells (activated caspase-3) (MO7E cells [1]; 25 μM, 48 hours, SCF stimulation, compared to untreated SCF stimulated cells) | effect on number of apoptotic cells (activated caspase-3) (MO7E cells [1]; 25 μM, 48 hours, absence of SCF stimulation) | increase in cleaved PARP (MO7E cells [2]; 5 μM, both timepoints (24 and 48 hours)) | increase in the amount of cleaved PARP (MO7E cells [2]; 25 μM, 48 hours) | change of the cleaved PARP effect with SCF stimulation (MO7E cells [2]; 25 μM, 48 hours, with SCF stimulation) | inhibition of c-kit tyrosine phosphorylation (c-kit; 0.01 μM) | inhibition of c-kit tyrosine phosphorylation (c-kit; 0.1 μM) | inhibition of c-kit tyrosine phosphorylation (c-kit; 1 μM) | inhibition of c-kit tyrosine phosphorylation (c-kit; 10 μM) | IC50 (MO7E cells [3]) | effect on number of apoptotic cells (activated caspase-3) (MO7E cells [1]; 5 μM, 24 hours, with or without SCF stimulation) |
| --- | --- | --- | --- | --- | --- | --- | --- | --- | --- | --- | --- | --- | --- |
| Cc1cc(C)c(/C=C2\C(=O)Nc3ccccc32)[nH]1 [Compound Eight] | measurable but smaller number of apoptotic cells | measurable but smaller number of apoptotic cells | approximately 50% | slight effect | very minimal increase | greatest increase | augmented slightly |  |  |  |  |  |  |
| Cc1[nH]c(/C=C2\C(=O)Nc3ccccc32)c(C)c1CCC(=O)O [Compound Six] |  |  |  |  |  |  |  | no inhibition | no inhibition | partial inhibition | complete inhibition | 5 to 7 µM | no effect |
